In patent publication US8962596B2 (Array BioPharma Inc., priority 2010, dated 2015):

Assays:
Type in all cases: biochemical
JAK3 = biological target: T1, JAK3 (Homo sapiens, UniProt P52333); test: JAK3 Inhibition Assay (Omnia kinase fluorescence peptide substrate assay); settings: averaged IC50 ranges; assay of Example D; 10 μM (Km app) or 1 mM ATP, 2.5 nM JAK3
T1 construct: purchased Invitrogen Corporation, Carlsbad, Calif; PV4080
T1 sequence (P52333 1-1124): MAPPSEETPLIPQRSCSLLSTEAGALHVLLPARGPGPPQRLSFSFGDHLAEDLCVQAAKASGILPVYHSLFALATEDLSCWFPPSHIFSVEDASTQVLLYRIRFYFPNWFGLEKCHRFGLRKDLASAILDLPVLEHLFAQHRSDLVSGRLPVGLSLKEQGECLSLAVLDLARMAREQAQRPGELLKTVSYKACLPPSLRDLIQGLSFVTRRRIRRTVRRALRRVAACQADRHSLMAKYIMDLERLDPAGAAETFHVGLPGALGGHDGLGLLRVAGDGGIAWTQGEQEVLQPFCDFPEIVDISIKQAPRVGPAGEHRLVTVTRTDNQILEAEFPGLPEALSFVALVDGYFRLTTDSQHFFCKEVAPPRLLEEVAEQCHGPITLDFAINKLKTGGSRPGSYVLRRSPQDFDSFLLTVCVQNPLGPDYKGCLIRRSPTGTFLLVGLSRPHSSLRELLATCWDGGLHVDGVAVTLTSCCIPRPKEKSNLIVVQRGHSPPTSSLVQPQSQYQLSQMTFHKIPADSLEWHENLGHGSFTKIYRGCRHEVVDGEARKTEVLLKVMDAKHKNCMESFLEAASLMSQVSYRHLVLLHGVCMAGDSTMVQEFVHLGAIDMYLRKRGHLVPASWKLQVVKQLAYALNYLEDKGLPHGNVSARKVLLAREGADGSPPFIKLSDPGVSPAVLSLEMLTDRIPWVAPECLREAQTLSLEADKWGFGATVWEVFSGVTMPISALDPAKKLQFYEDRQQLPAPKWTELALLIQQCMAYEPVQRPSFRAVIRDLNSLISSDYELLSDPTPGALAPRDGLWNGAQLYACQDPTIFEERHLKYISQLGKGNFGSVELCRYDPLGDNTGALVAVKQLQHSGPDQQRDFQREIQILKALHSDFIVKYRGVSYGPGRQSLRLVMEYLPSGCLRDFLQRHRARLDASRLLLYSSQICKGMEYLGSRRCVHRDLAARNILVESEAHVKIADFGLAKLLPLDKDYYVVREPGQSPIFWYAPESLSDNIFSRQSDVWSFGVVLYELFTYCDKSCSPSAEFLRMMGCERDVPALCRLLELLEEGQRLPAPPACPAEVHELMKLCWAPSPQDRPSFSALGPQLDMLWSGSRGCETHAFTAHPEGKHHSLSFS
How it was run: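 Kinase at 2.5 nM with 10 µM Omnia Y7 peptide and 10 µM (Km app) or 1 mM ATP in 25 mM HEPES pH 7.4, 10 mM MgCl2, 1 mM DTT, 0.01% Triton X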

JAK1 = biological target: T2, JAK1 (Homo sapiens, UniProt P23458); test: JAK1 Inhibition Assay (Omnia kinase fluorescence peptide substrate assay); settings: averaged IC50 ranges; assay of Example B; 40 μM (Km app) or 1 mM ATP, 15 nM JAK1
T2 construct: purchased Invitrogen Corporation, Carlsbad, Calif; PV4775

JAK2 = biological target: T3, JAK2 (Homo sapiens, UniProt O60674); test: JAK2 Inhibition Assay (Omnia kinase fluorescence peptide substrate assay); settings: averaged IC50 ranges; assay of Example C; 25 μM (Km app) or 1 mM ATP, 5 nM JAK2
T3 construct: purchased Invitrogen Corporation, Carlsbad, Calif; PV4288
How it was run: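 5 nM JAK2 phosphorylated 10 μM Omnia Y7 peptide with ATP at 25 μM (Km app) or 1 mM, in 25 mM HEPES pH 7.4, 10 mM MgCl2, 0.01% Triton X-100, 1 mM DTT, 2% DMSO. Fluorescence (360/485 nm) was read every 50 s for 45 min. 10-point 3-fold series from 10 μM; POC versus uninhibited and background controls, 4-parameter logistic IC50.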

Human Tyk2 kinase domain = biological target: T4, Human Tyk2 kinase domain (Homo sapiens, UniProt P29597); test: Tyk2 Inhibition Assay (Omnia kinase fluorescence peptide substrate assay); settings: averaged IC50 ranges; assay of Example A; 10 μM (Km app) or 1 mM ATP, 2 nM Tyk2
T4 construct: comprising amino acids 886 to 1187 with 10 additional histidine residues; 10xHis (histidine tag) (C, cleaved yes); made in house
T4 sequence (P29597 886-1187): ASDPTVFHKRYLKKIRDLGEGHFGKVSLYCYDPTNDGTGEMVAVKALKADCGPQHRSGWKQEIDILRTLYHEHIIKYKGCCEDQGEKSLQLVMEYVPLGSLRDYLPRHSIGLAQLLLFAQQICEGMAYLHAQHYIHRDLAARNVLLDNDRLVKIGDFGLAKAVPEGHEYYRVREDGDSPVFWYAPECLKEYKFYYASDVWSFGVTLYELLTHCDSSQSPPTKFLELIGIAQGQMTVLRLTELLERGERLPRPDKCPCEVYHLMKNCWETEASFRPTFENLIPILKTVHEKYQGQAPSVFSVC
How it was run: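 2 nM His-tag-cleaved kinase domain (aa 886–1187) with 8 μM Omnia Y12 peptide, 10 μM (Km app) or 1 mM ATP, pH 7.4 HEPES/10 mM MgCl2, 2% DMSO. Fluorescence (ex 360/em 485 nm) every 50 s for 45 min; IC50 from 4-parameter fit of POC, top dose 10 μM.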

T3 sequence (O60674 whole entry): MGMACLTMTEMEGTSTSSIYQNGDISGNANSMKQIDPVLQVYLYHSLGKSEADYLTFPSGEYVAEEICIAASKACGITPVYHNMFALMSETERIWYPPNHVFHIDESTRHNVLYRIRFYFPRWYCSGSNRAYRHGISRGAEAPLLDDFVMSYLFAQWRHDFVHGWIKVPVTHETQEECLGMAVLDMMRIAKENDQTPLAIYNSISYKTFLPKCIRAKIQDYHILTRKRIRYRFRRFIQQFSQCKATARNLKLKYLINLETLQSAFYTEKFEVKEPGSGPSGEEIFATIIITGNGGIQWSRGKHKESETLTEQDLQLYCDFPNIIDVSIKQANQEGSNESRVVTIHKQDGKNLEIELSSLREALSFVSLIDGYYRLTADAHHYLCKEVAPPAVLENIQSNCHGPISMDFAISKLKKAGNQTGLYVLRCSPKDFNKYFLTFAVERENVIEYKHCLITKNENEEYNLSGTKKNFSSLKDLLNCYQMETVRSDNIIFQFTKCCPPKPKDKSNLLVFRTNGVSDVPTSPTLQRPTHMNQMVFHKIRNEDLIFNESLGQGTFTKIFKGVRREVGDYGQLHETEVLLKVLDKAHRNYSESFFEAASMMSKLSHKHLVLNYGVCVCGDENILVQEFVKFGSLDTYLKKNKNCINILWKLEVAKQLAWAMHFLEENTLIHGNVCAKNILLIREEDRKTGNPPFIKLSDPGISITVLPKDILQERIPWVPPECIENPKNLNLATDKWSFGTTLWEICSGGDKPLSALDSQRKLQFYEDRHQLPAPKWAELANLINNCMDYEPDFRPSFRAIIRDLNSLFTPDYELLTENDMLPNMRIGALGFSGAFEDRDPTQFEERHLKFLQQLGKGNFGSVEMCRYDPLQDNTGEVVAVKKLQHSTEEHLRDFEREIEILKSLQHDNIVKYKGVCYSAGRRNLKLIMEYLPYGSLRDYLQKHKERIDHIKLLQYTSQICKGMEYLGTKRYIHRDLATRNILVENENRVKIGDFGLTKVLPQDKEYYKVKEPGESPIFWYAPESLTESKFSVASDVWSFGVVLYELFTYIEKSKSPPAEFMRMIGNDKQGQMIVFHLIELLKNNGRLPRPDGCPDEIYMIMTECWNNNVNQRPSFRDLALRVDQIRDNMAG
T2 sequence (P23458 whole entry): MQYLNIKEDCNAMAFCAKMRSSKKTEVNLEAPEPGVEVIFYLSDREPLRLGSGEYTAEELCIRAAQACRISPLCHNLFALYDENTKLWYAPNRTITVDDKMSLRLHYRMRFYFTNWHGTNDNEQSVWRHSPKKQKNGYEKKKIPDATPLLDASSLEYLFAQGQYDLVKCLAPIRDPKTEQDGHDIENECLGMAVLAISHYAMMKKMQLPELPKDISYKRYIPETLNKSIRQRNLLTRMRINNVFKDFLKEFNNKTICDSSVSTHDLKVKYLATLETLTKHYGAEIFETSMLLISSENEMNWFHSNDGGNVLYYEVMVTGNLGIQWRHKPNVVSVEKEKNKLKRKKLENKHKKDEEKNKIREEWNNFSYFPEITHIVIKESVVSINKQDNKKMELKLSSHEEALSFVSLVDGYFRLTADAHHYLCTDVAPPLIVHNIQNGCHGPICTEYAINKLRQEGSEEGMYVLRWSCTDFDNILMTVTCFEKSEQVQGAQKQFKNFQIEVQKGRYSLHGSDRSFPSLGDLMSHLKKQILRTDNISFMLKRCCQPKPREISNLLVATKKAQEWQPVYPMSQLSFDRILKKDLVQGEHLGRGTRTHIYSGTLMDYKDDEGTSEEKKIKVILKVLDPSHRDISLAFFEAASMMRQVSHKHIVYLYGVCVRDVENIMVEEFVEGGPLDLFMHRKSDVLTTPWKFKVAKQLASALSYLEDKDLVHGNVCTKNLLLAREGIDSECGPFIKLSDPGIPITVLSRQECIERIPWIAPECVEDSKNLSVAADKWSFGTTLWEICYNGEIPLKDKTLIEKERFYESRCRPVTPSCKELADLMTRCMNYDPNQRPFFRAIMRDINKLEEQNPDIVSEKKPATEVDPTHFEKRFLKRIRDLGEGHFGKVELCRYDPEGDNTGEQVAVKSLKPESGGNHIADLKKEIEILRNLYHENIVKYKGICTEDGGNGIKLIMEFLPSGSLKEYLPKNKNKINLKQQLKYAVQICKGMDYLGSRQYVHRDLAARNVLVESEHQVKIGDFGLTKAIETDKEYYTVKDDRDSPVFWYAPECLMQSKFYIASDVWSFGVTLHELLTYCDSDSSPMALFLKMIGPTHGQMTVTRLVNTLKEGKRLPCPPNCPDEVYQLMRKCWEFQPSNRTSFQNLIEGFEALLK

Row | IC50 (JAK3) [nM] | IC50 (JAK1) [nM] | IC50 (JAK2) [nM] | IC50 (Human Tyk2 kinase domain) [nM] | Compound
1 | > 1000 | > 1000 | 100 to 1000 | 10 to 100 | CN1CC(CC#N)(n2cc(-c3nc(-c4cnn(C)c4)cc4nccn34)cn2)C1 [Example 83, 2-(1-methyl-3-(4-(7-(1-methyl-1H-pyrazol-4-yl)imidazo[1,2-c]pyrimidin-5-yl)-1H-pyrazol-1-yl)azetidin-3-yl)acetonitrile]
2 | 100 to 1000 | 10 to 100 | 10 to 100 | < 10 | Cn1cc(-c2cc3ncc(Cl)n3c(-c3cnn(C(CC#N)C4CC4)c3)n2)cn1 (stereo not shown) [Example 25, 3-(4-(3-chloro-7-(1-methyl-1H-pyrazol-4-yl)imidazo[1,2-c]pyrimidin-5-yl)-1H-pyrazol-1-yl)-3-cyclopropylpropanenitrile]
3 | > 1000 | 100 to 1000 | 10 to 100 | < 10 | Cn1cc(-c2cc3nccn3c(-c3cnn(C4(CC#N)CN(CCF)C4)c3)n2)cn1 [Example 77, 2-(1-(2-fluoroethyl)-3-(4-(7-(1-methyl-1H-pyrazol-4-yl)imidazo[1,2-c]pyrimidin-5-yl)-1H-pyrazol-1-yl)azetidin-3-yl)acetonitrile]
4 | > 1000 | 100 to 1000 | 100 to 1000 | 10 to 100 | Cn1cc(-c2cc3nccn3c(-c3cnn(C4(CC#N)CN(CCC#N)C4)c3)n2)cn1 [Example 78, 3-(3-(cyanomethyl)-3-(4-(7-(1-methyl-1H-pyrazol-4-yl)imidazo[1,2-c]pyrimidin-5-yl)-1H-pyrazol-1-yl)azetidin-1-yl)propanenitrile]
5 | > 1000 | 100 to 1000 | 10 to 100 | < 10 | Cn1cc(-c2cc3nccn3c(-c3cnn(C4(CC#N)CN(S(=O)(=O)CCC(F)(F)F)C4)c3)n2)cn1 [Example 98, 2-(3-(4-(7-(1-methyl-1H pyrazol-4-yl)imidazo[1,2-c]pyrimidin-5-yl)-1H-pyrazol-1-yl)-1-(3,3,3-trifluoropropylsulfonyl)azetidin-3-yl)acetonitrile]
6 | 100 to 1000 | 10 to 100 | 10 to 100 | < 10 | CN1CCC(c2ccc(-c3cc4nccn4c(-c4cnn(C(CC#N)C5CCCC5)c4)n3)cc2)CC1 (stereo not shown) [Example 110, 3-Cyclopentyl-3-(4-(7-(4-(1-methylpiperidin-4-yl)phenyl)imidazo[1,2-c]pyrimidin-5-yl)-1H-pyrazol-1-yl)propanenitrile]
7 | > 1000 | > 1000 | > 1000 | 100 to 1000 | CC(C)(C)NC(=O)c1cc2nccn2c(-c2cnn(C(CC#N)C3CC3)c2)n1 (stereo not shown) [Example 122, N-tert-butyl-5-(1-(2-cyano-1-cyclopropylethyl)-1H-pyrazol-4-yl)imidazo[1,2-c]pyrimidine-7-carboxamide]
8 | 100 to 1000 | 100 to 1000 | 10 to 100 | < 10 | N#CCC1(n2cc(-c3nc(-c4cnn(C5COC5)c4)cc4nccn34)cn2)CC2(CCC2)C1 [Example 162, 2-(2-(4-(7-(1-(oxetan-3-yl)-1H-pyrazol-4-yl)imidazo[1,2-c]pyrimidin-5-yl)-1H-pyrazol-1-yl)spiro[3.3]heptan-2-yl)acetonitrile]
9 | > 1000 | 100 to 1000 | 100 to 1000 | 100 to 1000 | CC(=O)N1CCC(C(CC#N)n2cc(-c3nc(-c4cnn(C)c4)cc4nccn34)cn2)CC1 (stereo not shown) [Example 27, 3-(1-acetylpiperidin-4-yl)-3-(4-(7-(1-methyl-1H-pyrazol-4-yl)imidazo[1,2-c]pyrimidin-5-yl)-1H-pyrazol-1-yl)propanenitrile]
10 | > 1000 | > 1000 | 100 to 1000 | 10 to 100 | Cn1cc(-c2cc3nccn3c(-c3cnn(C4(CC#N)CN(C5COC5)C4)c3)n2)cn1 [Example 67, 2-(3-(4-(7-(1-Methyl-1H-pyrazol-4-yl)imidazo[1,2-c]pyrimidin-5-yl)-1H-pyrazol-1-yl)-1-(oxetan-3-yl)azetidin-3-yl)acetonitrile]
11 | > 1000 | 100 to 1000 | 10 to 100 | 10 to 100 | N#CCC1(n2cc(-c3nc(-c4cnn(C5COC5)c4)cc4nccn34)cn2)CN(CC(F)(F)C(F)(F)F)C1 [Example 157, 2-(3-(4-(7-(1-(oxetan-3-yl)-1H-pyrazol-4-yl)imidazo[1,2-c]pyrimidin-5-yl)-1H-pyrazol-1-yl)-1-(2,2,3,3,3-pentafluoropropyl)azetidin-3-yl)acetonitrile]
12 | > 1000 | > 1000 | 100 to 1000 | 100 to 1000 | N#CCC(C1CC1)n1cc(-c2nc(-c3cnc4n3CCNC4)cc3nccn23)cn1 (stereo not shown) [Example 56, 3-Cyclopropyl-3-(4-(7-(5,6,7,8-tetrahydroimidazo[1,2-a]pyrazin-3-yl)imidazo[1,2-c]pyrimidin-5-yl)-1H-pyrazol-1-yl)propanenitrile]
13 | 100 to 1000 | < 10 | < 10 | < 10 | CC(C)n1cc(-c2cc3nccn3c(-c3cnn(C4(CC#N)CN(S(=O)(=O)C(F)(F)F)C4)c3)n2)cn1 [Example 101, 2-(3-(4-(7-(1-Isopropyl-1H-pyrazol-4-yl)imidazo[1,2-c]pyrimidin-5-yl)-1H-pyrazol-1-yl)-1-(trifluoromethylsulfonyl)azetidine-3-yl)acetonitrile]
14 | 100 to 1000 | 10 to 100 | 10 to 100 | < 10 | Cn1cc(-c2cc3nccn3c(-c3cnn(C(CC#N)C4CC4)c3)n2)cn1 (single isomer, unassigned; enantiomer 2) [Example 4, Enantiomer 2 of 3-cyclopropyl-3-(4-(7-(1-methyl-1H-pyrazol-4-yl)imidazo[1,2-c]pyrimidin-5-yl)-1H-pyrazol-1-yl)propanenitrile (Peak 2)]
15 | > 1000 | 10 to 100 | 10 to 100 | < 10 | Cn1cc(-c2cc3nccn3c(-c3cnn(C4(CC#N)CN(S(=O)(=O)C5CC5)C4)c3)n2)cn1 [Example 95, 2-(1-(cyclopropylsulfonyl)-3-(4-(7-(1-methyl-1H-pyrazol-4-yl)imidazo[1,2-c]pyrimidin-5-yl)-1H-pyrazol-1-yl)azetidin-3-yl)acetonitrile]
16 | > 1000 | 100 to 1000 | 100 to 1000 | 10 to 100 | CC(C)CN1CC(CC#N)(n2cc(-c3nc(-c4cnn(C)c4)cc4nccn34)cn2)C1 [Example 85, 2-(1-isobutyl-3-(4-(7-(1-methyl-1H-pyrazol-4-yl)imidazo[1,2-c]pyrimidin-5-yl)-1H-pyrazol-1-yl)azetidin-3-yl)acetonitrile]
